Laboratory results from PMC9228955, “Synthesis, Physicochemical, Labeling and In Vivo Characterization of ^44Sc-Labeled DO3AM-NI as a Hypoxia-Sensitive PET Probe” (Pharmaceuticals, 2022).

Key:
[1] = Octanol/water partition coefficient (logP) of labeled complexes; assay type: physicochemical; details: 1-octanol/water, triplicates
Description: (§1) Subsequently, the octanol/water partition coefficient (logP) of the labeled complexes was determined to be −3.89 for [^68Ga]Ga(DO3AM-NI) and −2.59 for [^44Sc]Sc(DO3AM-NI). […] To assess the labeled compounds’ stability, the chelates were mixed with the solution of mouse plasma, Na2H2EDTA and oxalic acid, respectively. Aliquots were then taken at different time points (0, 60, 120 and 240 min) and injected into the radio-HPLC column, and the chromatograms were analyzed. After 240 min, the RCP of the samples was above 93% in all three cases.
A 10 µL volume of [^68Ga]Ga(DO3AM-NI) and [^44Sc]Sc(DO3AM-NI) solution (~5 MBq) was mixed with 500 µL of 1-octanol and 490 µL of water in an Eppendorf vial, respectively. The mixture was shaken with a vortex shaker (600 rpm) for 10 min and centrifuged (6000 rpm) for 5 min. Then, 100 µL from the octanol phase and 1 μL from the aqueous phase were pipetted into vials, and the aqueous aliquot was diluted to 100 µL with water in order to minimize the effects of sample geometry and the high difference of activity concentrations in the two solvents. The radioactivity of the fractions was determined with a gamma counter. The measurements were performed in triplicates for both labeled compounds.

[2] = Stability of labeled complexes in mouse plasma, Na2H2EDTA and oxalic acid by radio-HPLC; assay type: in vitro ADME
Description: as §1
A 10 µL volume of [^68Ga]Ga(DO3AM-NI) and [^44Sc]Sc(DO3AM-NI) solution was added to the solution of 90 µL of mouse plasma, Na2H2EDTA (0.01 M) and oxalic acid (0.01 M), respectively. Samples were analyzed by radio-HPLC at the beginning and after 60, 120 and 240 min. The analytical conditions were the same as detailed for the quality control of the labeled compound.

[3] = Ex vivo biodistribution in healthy control SCID mice; set-up: species or system CB17 SCID mice; details: mean ± SD
Description: Ex vivo biodistribution studies were carried out 90 min and 240 min after intravenous injection of ^44Sc- or ^68Ga-labeled DO3AM-NI, and the accumulated activities of the organs and tissues were determined using a gamma counter. By the quantitative analysis of the ex vivo data, significant differences were found between the %ID/g values when ^44Sc- and ^68Ga-labeled DO3AM-NI accumulations were compared. […] In contrast, e.g., [^18F]fluorine- [28], [^131I]iodine- [29], [^99mTc]technetium- [30] and [^64Cu]copper-labeled nitroimidazole-based probes, due to their chemical properties, were mainly metabolized via the liver, and the large abdominal accumulation impaired the evaluation of abdominal tumors in the PET images. The ^44Sc- and ^68Ga-labeled nitroimidazole derivatives had more favorable properties in terms of the reporting and evaluation of PET images and due to their rapid elimination through the urinary system.
(§2) For the determination of ex vivo biodistribution of the radiotracers, control and KB tumor-bearing mice were injected intravenously with 8.42 ± 0.38 MBq of ^68Ga- or ^44Sc-labeled DO3AM-NI via the tail vein. Mice were euthanized with 5% isoflurane 90 min or 4 h after intravenous radiotracer injection. Three tissue samples were taken from the selected organs, and their weight and radioactivity were measured with a calibrated gamma counter (Perkin-Elmer Packard Cobra, Waltham, MA, USA). The radiotracer uptake was expressed as %ID/g tissue.

KB tumors [4] = assay: In vivo PET/MRI imaging of KB tumor-bearing mice, quantitative SUV analysis; set-up: species or system CB17 SCID mice; details: 240 min after injection
Description: The tumor-specific accumulation of [^44Sc]Sc(DO3AM-NI) and [^68Ga]Ga(DO3AM-NI) was investigated by PET/MRI imaging 90 and 240 min after radiotracer injection using KB tumor-bearing mice. The subcutaneously growing KB tumors were clearly visualized using [^44Sc]Sc(DO3AM-NI) 90 and 240 min post injection with relatively higher SUVmean and SUVmax values (SUVmean: 1.46 ± 0.32 and SUVmax: 2.35 ± 0.47 at 90 min and SUVmean: 0.67 ± 0.03 and SUVmax: 1.55 ± 0.28 at 240 min). Lower accumulation was found in the same KB tumors by using the ^68Ga-labeled molecule (SUVmean: 0.79 ± 0.10, SUVmax: 1.94 ± 0.40 at 90 min and SUVmean: 0.51 ± 0.09 and SUVmax: 1.23 ± 0.10 at 240 min); however, this difference between the radiotracers was not significant (Figure 4E). […] In contrast, no significant differences were found between the T/M SUV values of the two radiotracers 90 min post injection (Figure 4F).
(§3) For tumor induction, SCID mice were injected with 5x10^6 KB tumor cells in 0.9% NaCl (100 µL) subcutaneously into the left shoulder area. The tumor growth was assessed by caliper measurements, and tumor size was calculated using the following formula: (largest diameter × smallest diameter^2)/2. In vivo experiments were carried out approximately 13 ± 1 days after […] injection of tumor cells at the tumor volume of approximately 110 mm^3.
For in vivo imaging studies, healthy control and KB tumor-bearing CB17 SCID mice were injected with 8.42 ± 0.38 MBq of ^68Ga- or ^44Sc-labeled DO3AM-NI via the lateral tail vein 13 ± 1 days after the inoculation of KB tumor cells. Then, 65 and 225 min after radiotracer injection, mice were anaesthetized by 3% isoflurane (Forane) with a dedicated small animal anesthesia device and whole-body T1-weighted MRI scans were performed (3D GRE EXT multi-FOV; TR/TE 15/2 ms; phase: 100; FOV 60 mm; NEX 2) using the preclinical nanoScan PET/MRI system with 1 Tesla magnetic field (Mediso Ltd., Hungary). After MRI imaging, 20 min static whole-body PET scans were acquired (90 min and 4 h after radiotracer injection).
Quantitative radiotracer uptake was expressed in terms of standardized uptake value (SUV), SUV = [VOI activity (Bq/mL)]/[injected activity (Bq)/animal weight (g)], assuming a density of 1 g/mL. Volumes of interest (VOI) were manually drawn around the edge of the organ or tumor activity using the InterView™ FUSION (Mediso Ltd., Hungary) image analysis software. Tumor-to-muscle (T/M) ratios were computed as the ratio between the activity in the tumor VOI and in the background (muscle) VOI. Skeletal muscles of the right shoulder area were used as background.

KB tumors [5] = assay: Ex vivo biodistribution in KB tumor xenografts; set-up: species or system CB17 SCID mice; details: for KB tumor uptake: 13 ± 1 days after subcutaneous tumor induction, n = 5, mean ± SD
Description: For the assessment of the accumulation in the tumors of [^44Sc]Sc(DO3AM-NI) and [^68Ga]Ga(DO3AM-NI), ex vivo biodistribution studies were performed 90 and 240 min post injection using KB tumor xenografts.
as §3, §2

octanol/water partition coefficient (logP) [1]: −2.59
RCP after 240 min ([2]; Na2H2EDTA (0.01 M)): above 93%
RCP after 240 min ([2]; mouse plasma): above 93%
RCP after 240 min ([2]; oxalic acid (0.01 M)): above 93%
Blood uptake ([3]; 90 min after i.v. injection): 0.08 ± 0.01 %ID/g
Fat uptake ([3]; 90 min after i.v. injection): 0.01 ± 0.001 %ID/g
Heart uptake ([3]; 90 min after i.v. injection): 0.04 ± 0.01 %ID/g
Kidney uptake ([3]; 90 min after i.v. injection): 1.17 ± 0.41 %ID/g
Large intestine uptake ([3]; 90 min after i.v. injection): 0.05 ± 0.01 %ID/g
Liver uptake ([3]; 90 min after i.v. injection): 0.14 ± 0.09 %ID/g
Lung uptake ([3]; 90 min after i.v. injection): 0.10 ± 0.04 %ID/g
Muscle uptake ([3]; 90 min after i.v. injection): 0.01 ± 0.01 %ID/g
Small intestine uptake ([3]; 90 min after i.v. injection): 0.10 ± 0.05 %ID/g
Spleen uptake ([3]; 90 min after i.v. injection): 0.07 ± 0.02 %ID/g
Stomach uptake ([3]; 90 min after i.v. injection): 0.09 ± 0.03 %ID/g
Urine uptake ([3]; 90 min after i.v. injection): 57.78 ± 12.41 %ID/g
Blood uptake ([3]; 240 min after i.v. injection): 0.03 ± 0.01 %ID/g
Fat uptake ([3]; 240 min after i.v. injection): 0.01 ± 0.01 %ID/g
Heart uptake ([3]; 240 min after i.v. injection): 0.03 ± 0.01 %ID/g
Kidney uptake ([3]; 240 min after i.v. injection): 0.89 ± 0.23 %ID/g
Large intestine uptake ([3]; 240 min after i.v. injection): 0.04 ± 0.004 %ID/g
Liver uptake ([3]; 240 min after i.v. injection): 0.20 ± 0.04 %ID/g
Lung uptake ([3]; 240 min after i.v. injection): 0.04 ± 0.003 %ID/g
Muscle uptake ([3]; 240 min after i.v. injection): 0.007 ± 0.002 %ID/g
Small intestine uptake ([3]; 240 min after i.v. injection): 0.03 ± 0.01 %ID/g
Spleen uptake ([3]; 240 min after i.v. injection): 0.06 ± 0.01 %ID/g
Stomach uptake ([3]; 240 min after i.v. injection): 0.03 ± 0.005 %ID/g
Urine uptake ([3]; 240 min after i.v. injection): 6.23 ± 1.25 %ID/g
tumor-to-muscle ratio T/M SUVmax (KB tumors [4]): 129.68 ± 26.11
tumor-to-muscle ratio T/M SUVmean (KB tumors [4]): 182.67 ± 23.50
T/M (tumor-to-muscle ratio) (KB tumors [5]; 90 min after injection): 79.30 ± 5.26
KB tumor uptake (KB tumors [5]; 90 min after injection): 0.82 ± 0.11 %ID/g
T/M (tumor-to-muscle ratio) (KB tumors [5]; 240 min after injection): 99.35 ± 5.14
KB tumor uptake (KB tumors [5]; 240 min after injection): 0.70 ± 0.14 %ID/g
T/M ratio relative to the T/M ratio of [^68Ga]Ga(DO3AM-NI) (KB tumors [5]; at each time point (90 and 240 min)): 10–15 fold
SMILES: O=C([O-])CN1CCN(CC(=O)[O-])CCN(CC(=O)NCCn2ccnc2[N+](=O)[O-])CCN(CC(=O)[O-])CC1.[44Sc+3] [[^44Sc]Sc(DO3AM-NI)]
